Reference: patent US10377791B2, “Therapeutically active estratrienthiazole derivatives as inhibitors of 17 B-hydroxysteroid dehydrogenase, type 1” (FORENDO PHARMA LTD, priority 2013, dated 2019)
Several values for one entry are separate records, joined by “and”; a condition that tells them apart may be missing. Equal entries are not always repeated. Structures can show the parent of a compound that is named as a salt. Where two headings read alike, the source gives them in different places.

Key:
[1] = molecular target: T1, recombinant human 17β-HSD1 (Homo sapiens, UniProt P14061); experiment: Inhibition of recombinant human 17β-HSD1; type: biochemical; conditions: for inhibition at 1 µM: read-out: 17β-HDS1 Inhibition % at 1 μM
T1 construct: made in house; host or cells: Sd9 (Sf9) insect cells, baculovirus (Bac to Bac Expression System)
T1 sequence (P14061 1-328): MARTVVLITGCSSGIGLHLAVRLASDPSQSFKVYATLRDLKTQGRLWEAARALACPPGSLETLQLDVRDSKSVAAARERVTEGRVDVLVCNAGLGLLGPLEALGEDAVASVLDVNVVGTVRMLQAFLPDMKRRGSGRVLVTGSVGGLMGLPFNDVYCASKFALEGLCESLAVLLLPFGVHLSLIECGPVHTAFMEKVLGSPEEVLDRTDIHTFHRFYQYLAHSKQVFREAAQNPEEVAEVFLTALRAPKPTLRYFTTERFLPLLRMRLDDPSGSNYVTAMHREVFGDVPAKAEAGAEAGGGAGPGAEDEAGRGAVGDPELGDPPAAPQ
Description: Recombinant baculovirus was generated by the “Bac to Bac Expression System” (Invitrogen). Recombinant bacmid was transfected to Sd9 insect cells using “Cellfectin Reagent” (Invitrogen). 60 h later cells were harvested; the microsomal fraction was isolated as described by Puranen, T. J., Poutanen, M. H., Peltoketo, H. E., Vihko, P. T. and Vihko, R. K. (1994) Site-directed mutagenesis of the putative active site of human 17 β-hydroxysteroid dehydrogenase type 1. Biochem. J. 304: 289-293. Aliquots were stored frozen until determination of enzymatic activity.
Recombinant protein (1 μg/ml) was incubated in 20 mM KH2PO4 pH 7.4 with 30 nM estrone (including 800 000 cpm/ml of ^3H-estrone) and 1 mM NADPH for 30 min at RT, in the presence of the potential inhibitor at concentrations 1 μM or 0.1 μM. Inhibitor stock solutions were prepared in DMSO. Final concentration of DMSO was adjusted to 1% in all samples. The enzyme reaction was stopped by addition of 10% trichloroacetic acid (final concentration). Samples were centrifuged in a microtiter plate at 4000 rpm for 10 min. Supernatants were applied to reverse phase HPLC on a Waters Symmetry C18 column, equipped with a Waters Sentry Guard column. Isocratic HPLC runs were performed at RT at a flow rate of 1 ml/min in acetonitrile:water 48:52 as running solvent. Radioactivity was monitored in the eluate by a Packard Flow Scintillation Analyzer. Total radioactivity for estrone and estradiol were determined in each sample and percent conversion of estrone to estradiol was calculated according to the following formula:
(§1) [formula] Percent inhibition was calculated flowingly: % inhibition=100−% conversion

[2] = molecular target: T2, recombinant human 17β-HSD2 (Homo sapiens, UniProt P37059); experiment: Inhibition of recombinant human 17β-HSD2; type: biochemical; conditions: for inhibition at 1 µM: read-out: 17β-HSD2 Inhibition % at 1 μM
T2 construct: made in house; host or cells: Sd9 (Sf9) insect cells, baculovirus (Bac to Bac Expression System)
T2 sequence (P37059 1-387): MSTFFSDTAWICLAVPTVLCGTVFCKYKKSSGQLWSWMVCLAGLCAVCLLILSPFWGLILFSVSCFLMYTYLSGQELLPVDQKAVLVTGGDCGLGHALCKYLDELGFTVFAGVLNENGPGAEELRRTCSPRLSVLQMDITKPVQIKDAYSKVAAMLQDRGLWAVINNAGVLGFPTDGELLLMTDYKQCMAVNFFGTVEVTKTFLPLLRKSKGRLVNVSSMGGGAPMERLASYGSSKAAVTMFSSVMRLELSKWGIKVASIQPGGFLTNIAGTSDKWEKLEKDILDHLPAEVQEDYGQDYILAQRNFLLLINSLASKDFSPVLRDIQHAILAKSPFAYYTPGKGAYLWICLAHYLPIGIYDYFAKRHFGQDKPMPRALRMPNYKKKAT
Description: Similarly to 17β-HSD1 the Recombinant baculovirus was generated by the “Bac to Bac Expression System” (Invitrogen). Recombinant bacmid was transfected to Sd9 insect cells using “Cellfectin Reagent” (Invitrogen). 60 h later cells were harvested and supernatant were fractionated by the following protocol: • cells were dissolved into 40 ml of A-buffer (40 mM TRIS, pH8.0, 20% glycerol, 20 μM NAD, 0.4 mM PMSF, 150 mM NaCl, 0.5% dodecyl-β-maltoside+protease inhibitor cocktail) • cells were sonicated • lysate was incubated on ice for 15 min • lysate was centrifuged 5000 rpm 15 min, +4° C. • centrifugation of the supernatant 180 000 g 30 min, +4° C. • pellet was dissolved into 8 ml of A-buffer • not resuspended material was removed by centrifugation 5000 rpm 15 min, +4° C. • the clear supernatant was divided into 100 μl aliquots and were stored frozen until determination of enzymatic activity.
The amount of 17β-HSD2 was analysed by immunoblotting and total protein concentration of each extract batch was determined.
Recombinant protein (4 μg/ml) was incubated in 20 mM KH2PO4 pH 8.5 with 50 nM estradiol (including 800 000 cpm/ml of ^3H-estradiol) and 1 mM NADH for 30 min at RT, in the presence of the potential inhibitor at concentrations 1 μM or 0.1 μM. Inhibitor stock solutions were prepared in DMSO. Final concentration of DMSO was adjusted to 1% in all samples. The enzyme reaction was stopped by addition of 10% trichloroacetic acid (final concentration). Samples were centrifuged in a microtiter plate at 4000 rpm for 10 min. Supernatants were applied to reverse phase HPLC on a Waters Symmetry C18 column, equipped with a Waters Sentry Guard column. Isocratic HPLC runs were performed at RT at a flow rate of 1 ml/min in acetonitrile:water 48:52 as running solvent. Radioactivity was monitored in the eluate by a Packard Flow Scintillation Analyzer. Total radioactivity for estrone and estradiol were determined in each sample and percent conversion of estradiol to estrone was calculated according to the following formula:
as §1

[3] = inhibitor at 1 μM, 30 nM estrone, 1 mM NADPH, 30 min at RT
[4] = inhibitor at 1 μM, 50 nM estradiol, 1 mM NADH, 30 min at RT

Row | SMILES | inhibition at 1 µM [1, 3] [%] | inhibition at 1 µM [2, 4] [%] | also measured
1 | CC(=O)Oc1ccc2c(c1)CCC1C2CC[C@]2(C)C(=O)C[C@@H](CCC(=O)Nc3ncc(C)s3)C12 (stereo partly drawn) [Compound 1, Acetic acid (13S,15R)-13-methyl-15-[2-(5-methylthiazol-2-ylcarbamoyl)-ethyl]-17-oxo-7,8,9,11,12,13,14,15,16,17-decahydro-6H-cyclopenta[a]phenanthren-3-yl ester] | 92 | 13 | 
2 | Cc1cnc(NC(=O)CC[C@@H]2CC(=O)[C@@]3(C)CCC4c5ccc(OS(N)(=O)=O)cc5CCC4C23)s1 (stereo partly drawn) [Compound 4, Sulphamic acid (13S,15R)-13-methyl-15-[2-(5-methylthiazol-2-ylcarbamoyl)-ethyl]-17-oxo-7,8,9,11,12,13,14,15,16,17-decahydro-6H-cyclopenta[a]phenanthren-3-yl ester] | 82 | 3 | 
3 | Cc1cnc(NC(=O)CC[C@@H]2CC(=O)[C@@]3(C)CCC4c5ccc(OP(=O)(O)O)cc5CCC4C23)s1 (stereo partly drawn) [Compound 7, Phosphoric acid mono-{(13S,15R)-13-methyl-15-[2-(5-methylthiazol-2-ylcarbamoyl)-ethyl]-17-oxo-7,8,9,11,12,13,14,15,16,17-decahydro-6H-cyclopenta[a]phenanthren-3-yl} ester] | 80 |  | 17β-HSD2 Inhibition % at 1 μM [2, 4]: 3%
4 | Cc1cnc(NC(=O)CC[C@@H]2CC(=O)[C@@]3(C)CCC4c5ccc(OP(=O)([O-])[O-])cc5CCC4C23)s1.[Na+].[Na+] (stereo partly drawn) [Compound 8, Phosphoric acid mono-{(13S,15R)-13-methyl-15-[2-(5-methylthiazol-2-ylcarbamoyl)-ethyl]-17-oxo-7,8,9,11,12,13,14,15,16,17-decahydro-6H-cyclopenta[a]phenanthren-3-yl} ester disodium salt] |  |  | 17β-HDS1 Inhibition % at 1 μM [1, 3]: 81%; 17β-HSD2 Inhibition % at 1 μM [2, 4]: 0%
5 | Cc1cnc(NC(=O)CC[C@@H]2CC(=O)[C@@]3(C)CCC4c5ccc(OC(=O)CCC(=O)O)cc5CCC4C23)s1 (stereo partly drawn) [Compound 10, Succinic acid mono-{(13S,15R)-13-methyl-15-[2-(5-methylthiazol-2-ylcarbamoyl)-ethyl]-17-oxo-7,8,9,11,12,13,14,15,16,17-decahydro-6H-cyclopenta[a]phenanthren-3-yl} ester sodium salt] | 98 | 1 | 
6 | CC(=O)NCC(=O)Oc1ccc2c(c1)CCC1C2CC[C@]2(C)C(=O)C[C@@H](CCC(=O)Nc3ncc(C)s3)C12 (stereo partly drawn) [Compound 11, Acetylamino-acetic acid (13S,15R)-13-methyl-15-[2-(5-methylthiazol-2-ylcarbamoyl)-ethyl]-17-oxo-7,8,9,11,12,13,14,15,16,17-decahydro-6H-cyclopenta[a]phenanthren-3-yl ester] | 87 |  | 17β-HDS1 Inhibition % at 1 μM [1, 3]: 88%; 17β-HSD2 Inhibition % at 1 μM [2, 4]: 0% and 2%
7 | Cc1cnc(NC(=O)CC[C@@H]2CC(=O)[C@@]3(C)CCC4c5ccc(OC(=O)CNC(=O)OC(C)(C)C)cc5CCC4C23)s1 (stereo partly drawn) [Compound 15, tert-Butoxycarbonylamino-acetic acid (13S,15R)-13-methyl-15-[2-(5-methylthiazol-2-ylcarbamoyl)-ethyl]-17-oxo-7,8,9,11,12,13,14,15,16,17-decahydro-6H-cyclopenta[a]phenanthren-3-yl ester] | 66 | 0 | 
8 | Cc1cnc(NC(=O)CC[C@@H]2CC(=O)[C@@]3(C)CCC4c5ccc(OC(=O)CN)cc5CCC4C23)s1 (stereo partly drawn) [Compound 16, Amino-acetic acid (13S,15R)-13-methyl-15-[2-(5-methylthiazol-2-ylcarbamoyl)-ethyl]-17-oxo-7,8,9,11,12,13,14,15,16,17-decahydro-6H-cyclopenta[a]phenanthren-3-yl ester] | 93 | 0 | 
9 | CC(=O)Oc1ccccc1C(=O)Oc1ccc2c(c1)CCC1C2CC[C@]2(C)C(=O)C[C@@H](CCC(=O)Nc3ncc(C)s3)C12 (stereo partly drawn) [Compound 19, 2-Acetoxy-benzoic acid (13S,15R)-13-methyl-15-[2-(5-methylthiazol-2-ylcarbamoyl)-ethyl]-17-oxo-7,8,9,11,12,13,14,15,16,17-decahydro-6H-cyclopenta[a]phenanthren-3-yl ester] | 58 | 0 | 
10 | CCOC(=O)Oc1ccc2c(c1)CCC1C2CC[C@]2(C)C(=O)C[C@@H](CCC(=O)Nc3ncc(C)s3)C12 (stereo partly drawn) [Compound 20, Ethyl ((13S,15R)-13-methyl-15-(3-((5-methylthiazol-2-yl)amino)-3-oxopropyl)-17-oxo-7,8,9,11,12,13,14,15,16,17-decahydro-6H-cyclopenta[a]phenanthren-3-yl) carbonate] | 52 | 0 | 
11 | Cc1cnc(NC(=O)CC[C@@H]2CC(=O)[C@@]3(C)CCC4c5ccc(OS(=O)(=O)N(C)C)cc5CCC4C23)s1 (stereo partly drawn) [Compound 23, Dimethyl-sulphamic acid (13S,15R)-13-methyl-15-[2-(5-methylthiazol-2-ylcarbamoyl)-ethyl]-17-oxo-7,8,9,11,12,13,14,15,16,17-decahydro-6H-cyclopenta[a]phenanthren-3-yl ester] | 74 | 6 | 
12 | Cc1cnc(NC(=O)CC[C@@H]2CC(=O)[C@@]3(C)CCC4c5ccc(OC(=O)N(C)C)cc5CCC4C23)s1 (stereo partly drawn) [Compound 25, Dimethyl-carbamic acid (13S,15R)-13-methyl-15-[2-(5-methylthiazol-2-ylcarbamoyl)-ethyl]-17-oxo-7,8,9,11,12,13,14,15,16,17-decahydro-6H-cyclopenta[a]phenanthren-3-yl ester] |  |  | inhibition at 1 µM [1]: 52%; inhibition at 1 µM [2]: 6%
13 | Cc1cnc(NC(=O)CC[C@@H]2CC(=O)[C@@]3(C)CCC4c5ccc(OC(=O)CN(C)C)cc5CCC4C23)s1 (stereo partly drawn) [Compound 26, Dimethylamino-acetic acid (13S,15R)-13-methyl-15-[2-(5-methylthiazol-2-ylcarbamoyl)-ethyl]-17-oxo-7,8,9,11,12,13,14,15,16,17-decahydro-6H-cyclopenta[a]phenanthren-3-yl ester] | 96 | 6 | 
